According to US11884660B2, “Substituted oxopyridine derivative” (Bayer Pharma Aktiengesellschaft, priority 2018, dated 2024):
Structures can show the parent of a compound that is named as a salt.

Assays:
human plasma kallikrein = human plasma kallikrein (Homo sapiens (Human), UniProt P03952); experiment: Determination of the plasma kallikrein activity (fluorogenic substrate H-Pro-Phe-Arg-AMC); type: biochemical; conditions: human plasma kallikrein 0.6 nM; 15 min preincubation; 30 min at 22° C.; some as mean values from multiple determinations
Experimental: a.1) Determination of the Plasma Kallikrein Activity
(§1) To determine the plasma kallikrein inhibition of the substances according to the invention, a biochemical test system is used which utilizes the reaction of a peptidic plasma kallikrein substrate to determine the enzymatic activity of human plasma kallikrein. Here, plasma kallikrein cleaves from the peptic plasma kallikrein substrate the C-terminal aminomethylcoumarin (AMC), the fluorescence of which is measured. The determinations are carried out in microtitre plates.
Test substances are dissolved in dimethyl sulphoxide and serially diluted in dimethyl sulphoxide (3000 μM to 0.0078 μM; resulting final concentrations in the test: 50 μM to 0.00013 μM). In each case 1 μl of the diluted substance solutions is placed into the wells of white microtitre plates from Greiner (384 wells). 20 μl of assay buffer (50 mM Tris/HCl pH 7.4; 100 mM sodium chloride solution; 5 mM of calcium chloride solution; 0.1% of bovine serum albumin) and 20 μl of plasma kallikrein from Kordia (0.6 nM in assay buffer) are then added successively. After 15 min of incubation, the enzyme reaction is started by addition of 20 μl of the substrate H-Pro-Phe-Arg-AMC dissolved in assay buffer (10 μM in assay buffer) from Bachem, the mixture is incubated at room temperature (22° C.) for 30 min and fluorescence is then measured (excitation: 360 nm, emission: 460 nm). The measured emissions of the test batches with test substance are compared to those of control batches without test substance (only dimethyl sulphoxide instead of test substance in dimethyl sulphoxide), and IC50 values are calculated from the concentration/activity relationships. Activity data from this test are listed in Table A below (some as mean values from multiple independent individual determinations): […]

human factor XIa = human factor XIa (Homo sapiens (Human), UniProt P03951); experiment: Measurement of FXIa inhibition (fluorogenic substrate Boc-Glu(OBzl)-Ala-Arg-AMC); type: biochemical; conditions: human factor XIa 0.45 nM; 15 min preincubation; 30 min at 22° C.; some as mean values from multiple determinations
Experimental: a.2) Measurement of FXIa Inhibition
as §1, with “The factor XIa” for “To determine the plasma kallikrein”, “invention is determined using” for “invention,”, “system” for “system is used”, “factor XIa” for “plasma kallikrein”, “factor XIa.” for “plasma kallikrein.”
Test substances are dissolved in dimethyl sulphoxide and serially diluted in dimethyl sulphoxide (3000 μM to 0.0078 μM; resulting final concentrations in the test: 50 μM to 0.00013 μM). In each case 1 μl of the diluted substance solutions is placed into the wells of white microtitre plates from Greiner (384 wells). 20 μl of assay buffer (50 mM of Tris/HCl pH 7.4; 100 mM of sodium chloride; 5 mM of calcium chloride; 0.1% of bovine serum albumin) and 20 μl of factor XIa from Kordia (0.45 nM in assay buffer) are then added successively. After 15 min of incubation, the enzyme reaction is started by addition of 20 μl of the factor XIa substrate Boc-Glu(OBzl)-Ala-Arg-AMC dissolved in assay buffer (10 μM in assay buffer) from Bachem, the mixture is incubated at room temperature (22° C.) for 30 min and fluorescence is then measured (excitation: 360 nm, emission: 460 nm). The measured emissions of the test batches with test substance are compared to those of control batches without test substance (only dimethyl sulphoxide instead of test substance in dimethyl sulphoxide), and IC50 values are calculated from the concentration/activity relationships. Activity data from this test are listed in Table B below (some as mean values from multiple independent individual determinations): […]

Chain of human factor XIa (P03951 388-625): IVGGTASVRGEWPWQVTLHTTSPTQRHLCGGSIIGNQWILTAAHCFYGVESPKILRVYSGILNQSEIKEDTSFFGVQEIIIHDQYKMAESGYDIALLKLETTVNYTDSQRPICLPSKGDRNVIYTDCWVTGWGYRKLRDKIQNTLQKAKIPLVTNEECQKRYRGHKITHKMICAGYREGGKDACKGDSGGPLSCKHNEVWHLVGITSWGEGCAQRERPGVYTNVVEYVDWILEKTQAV
Chain of human factor XIa (P03951 19-387 partner): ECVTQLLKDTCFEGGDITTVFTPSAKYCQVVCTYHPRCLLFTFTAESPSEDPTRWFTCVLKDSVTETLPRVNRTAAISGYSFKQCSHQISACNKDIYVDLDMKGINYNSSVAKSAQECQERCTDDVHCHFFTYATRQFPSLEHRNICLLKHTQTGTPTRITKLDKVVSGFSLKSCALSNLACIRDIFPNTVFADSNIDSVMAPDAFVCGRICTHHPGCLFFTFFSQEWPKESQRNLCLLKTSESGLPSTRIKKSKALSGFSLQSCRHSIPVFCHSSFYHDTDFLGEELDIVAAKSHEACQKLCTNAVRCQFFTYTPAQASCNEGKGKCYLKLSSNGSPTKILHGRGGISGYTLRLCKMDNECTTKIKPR
Chain of human plasma kallikrein (P03952 391-638): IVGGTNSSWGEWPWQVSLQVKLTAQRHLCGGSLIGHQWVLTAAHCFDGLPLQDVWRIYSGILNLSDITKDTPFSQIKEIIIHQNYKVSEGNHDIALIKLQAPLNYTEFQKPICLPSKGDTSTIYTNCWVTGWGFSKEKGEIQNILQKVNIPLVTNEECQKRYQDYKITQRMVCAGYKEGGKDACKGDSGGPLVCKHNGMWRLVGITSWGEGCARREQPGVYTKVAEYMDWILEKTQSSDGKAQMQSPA
Chain of human plasma kallikrein (P03952 20-390 partner): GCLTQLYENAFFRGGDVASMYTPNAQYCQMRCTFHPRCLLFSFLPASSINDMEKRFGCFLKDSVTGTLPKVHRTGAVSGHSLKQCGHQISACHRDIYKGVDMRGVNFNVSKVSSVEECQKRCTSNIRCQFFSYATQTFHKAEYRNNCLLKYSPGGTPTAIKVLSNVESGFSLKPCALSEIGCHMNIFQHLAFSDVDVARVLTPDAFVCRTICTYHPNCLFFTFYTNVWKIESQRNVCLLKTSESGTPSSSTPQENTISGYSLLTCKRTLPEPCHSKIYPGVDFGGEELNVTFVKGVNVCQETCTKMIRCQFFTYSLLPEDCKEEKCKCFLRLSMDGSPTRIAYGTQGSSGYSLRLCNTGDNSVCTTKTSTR

Compound	IC50 (human plasma kallikrein) [nM]	IC50 (human factor XIa) [nM]
COc1cn(C(C(=O)Nc2ccn3ncc(C(N)=O)c3c2)C(C)CCCN)c(=O)cc1-c1cc(Cl)ccc1C#N (racemic) [Example 1, 5-({6-Amino-2-[4-(5-chloro-2-cyanophenyl)-5-methoxy-2-oxopyridin-1(2H)-yl]-3-methyl-hexanoyl}amino)pyrazolo[1,5-a]pyridine-3-carboxamidetrifluoroacetate]	5.6	> 10000
COc1cn([C@H](C(=O)Nc2ccn3ncc(C(N)=O)c3c2)C(C)CCCN)c(=O)cc1-c1cc(Cl)ccc1C#N (single isomer, unassigned) [Example 2, trifluoroacetate]	1.8	> 2000
COc1cn([C@H](C(=O)Nc2ccn3ncc(C(N)=O)c3c2)C(C)CCCN)c(=O)cc1-c1cc(Cl)ccc1C#N (single isomer, unassigned) [Example 3, trifluoroacetate]	2.1	> 2000
